Consider 18 molecules from BindingDB's records for doi:10.1021/acs.jmedchem.0c01153 (Tokyo Medical and Dental University (Tmdu), 2021).

Assay [1] in a line: Inhibition of HIV1 KP-5mp1 gp120 interaction with CD4 human TZM-bl cells assessed as decrease in viral entry by MTT assay. (In general: Formazan colour is commonly taken as a measure of viable cells.)
Assay [2] is described as follows: Inhibition of HIV1 KP-5mvcR gp120 interaction with CD4 in human TZM-bl cells assessed as decrease in viral entry by MTT assay.

By IC50 is commonly meant the concentration that gives 50% inhibition. Consider `N=C(N)NCCCCCCCC(=O)NCCCC[C@H](NC(=N)N)C(=O)NCCN1CCC(NC(=O)C(=O)Nc2ccc(Cl)cc2)CC12CCCCC2` (stereo not given in full), for which the IC50 in assay [1] is 2.9 µM; in assay [2], 0.42 µM.
With `N=C(N)NCCCCCCCCCCC(=O)NCCN1CCC(NC(=O)C(=O)Nc2ccc(Cl)cc2)CC12CCCCC2` (stereo not given), the IC50 in assay [1] was 43 µM; in assay [2], 0.72 µM.
In the case of `N=C(N)NCCCCC(=O)NCCN1CCC(NC(=O)C(=O)Nc2ccc(Cl)cc2)CC12CCCCC2` (stereo not given), the IC50 in assay [1] turned out to be 2.1 µM; in assay [2], 0.12 µM.
Regarding `N=C(N)NCC(=O)NCCCC[C@H](NC(=N)N)C(=O)NCCN1CCC(NC(=O)C(=O)Nc2ccc(Cl)cc2)CC12CCCCC2` (stereo not given in full), the IC50 in assay [1] stood at 4.4 µM; in assay [2] it was 0.23 µM.
For the molecule `COCCOCCOCCOCCOCCOCCOCCOCCOCCOCCOCCOCCOCCOCCOCCOCCOCCOCCOCCOCCOCCOCCOCCOCCNC(=O)CCC(=O)N[C@@H](CCCNC(=N)N)C(=O)NCCN1CCC(NC(=O)C(=O)Nc2ccc(Cl)cc2)CC12CCCCC2` (stereo not given in full), the IC50 in assay [2] was less than 0.1 µM.
Regarding `COCCOCCOCCOCCOCCNC(=O)CCC(=O)OC(CCCNC(=N)N)C(=O)NCCN1CCC(NC(=O)C(=O)Nc2ccc(Cl)cc2)CC12CCCCC2` (stereo not given), in assay [2], the IC50 was found to be 0.017 µM.
As for `N=C(N)NCCCCCCCCCCC(=O)NCCCC[C@H](NC(=N)N)C(=O)NCCN1CCC(NC(=O)C(=O)Nc2ccc(Cl)cc2)CC12CCCCC2` (stereo not given in full), the figures for the IC50 in assay [1] and in assay [2] were 4.8 µM and 0.88 µM, respectively.
In the case of `N=C(N)NCCCCC(=O)NCCCC[C@H](NC(=N)N)C(=O)NCCN1CCC(NC(=O)C(=O)Nc2ccc(Cl)cc2)CC12CCCCC2` (stereo not given in full), the IC50 is 13 µM in assay [1] and 0.33 µM in assay [2].
Regarding `COCCOCCOCCOCCOCCNC(=O)CCC(=O)OC(CCCNS(=O)(=O)c1ccc([N+](=O)[O-])cc1)C(=O)NCCN1CCC(NC(=O)C(=O)Nc2ccc(Cl)cc2)CC12CCCCC2` (stereo not given), in assay [2], the IC50 stood at 0.57 µM.
Consider `N=C(N)NCCCCCCCC(=O)NCCN1CCC(NC(=O)C(=O)Nc2ccc(Cl)cc2)CC12CCCCC2` (stereo not given), for which, in assay [1], the IC50 was greater than 100 µM.
Turning to `N=C(N)NCCCC[C@H](NC(=N)N)C(=O)NCCN1CCC(NC(=O)C(=O)Nc2ccc(Cl)cc2)CC12CCCCC2` (stereo not given in full), the values for the IC50 in assay [1] and in assay [2] were 3.9 µM and 0.29 µM, respectively.
On to `CCCCCCCCCCCCCCCCNC(=O)CCC(=O)OC(CCCNC(=N)N)C(=O)NCCN1CCC(NC(=O)C(=O)Nc2ccc(Cl)cc2)CC12CCCCC2` (stereo not given), for which, in assay [2], the IC50 is 1.2 µM.
On the same count and under the same terms, the value for `CCCCCCCCCCCCCCCCNC(=O)CCC(=O)OC(CCCN)C(=O)NCCN1CCC(NC(=O)C(=O)Nc2ccc(Cl)cc2)CC12CCCCC2` (stereo not given) was 0.25 µM.
On to `COCCOCCOCCOCCOCCOCCOCCOCCOCCOCCOCCOCCNC(=O)CCC(=O)N[C@@H](CCCNC(=N)N)C(=O)NCCN1CCC(NC(=O)C(=O)Nc2ccc(Cl)cc2)CC12CCCCC2` (stereo not given in full), for which, in assay [2], the IC50 is less than 0.1 µM.
Same read-out and setting: the value for `COCCOCCOCCOCCOCCNC(=O)CCC(=O)OC(CCCN)C(=O)NCCN1CCC(NC(=O)C(=O)Nc2ccc(Cl)cc2)CC12CCCCC2` (stereo not given) was 0.046 µM.
`CC1(C)CC(NC(=O)C(=O)Nc2ccc(Cl)cc2)CC(C)(C)N1` [N-(4-chlorophenyl)-N'-(2,2,6,6-tetramethylpiperidin-4-yl)-oxalamide]: the IC50 in assay [1] was 6.9 µM.
With `COCCOCCOCCOCCOCCNC(=O)CCC(=O)N[C@@H](CCCNC(=N)N)C(=O)NCCN1CCC(NC(=O)C(=O)Nc2ccc(Cl)cc2)CC12CCCCC2` (stereo not given in full), the IC50 in assay [2] worked out at 0.13 µM.
Regarding `CCCCCCCCCCCCCCCCNC(=O)CCC(=O)OC(CCCNS(=O)(=O)c1ccc([N+](=O)[O-])cc1)C(=O)NCCN1CCC(NC(=O)C(=O)Nc2ccc(Cl)cc2)CC12CCCCC2` (stereo not given), in assay [2], the IC50 worked out at 3.4 µM.
